Test results: patent US12448383B2, “Compounds and methods for treatment of viral infections” (priority 2022, dated 2025)

What was measured:
[1] = test system: Caco-2 cells (clone C2BBe1); assay: CACO-2 permeability; assay type: in vitro ADME; parameters: unit not given here; details: for DM Caco2 A to B: apical to basolateral, donor pH 6.5, receiver pH 7.4; for DM Caco2 B to A: basolateral to apical
Procedure: Pre-plated Caco-2 cells (clone C2BBel) were obtained from Sigma-Aldrich, Inc. (Atlanta, GA). Cell monolayers were grown to confluence on collagen-coated, microporous, polycarbonate membranes in 24-well transwell plates for 21 days. The permeability assay buffer in donor wells was Hanks' balanced salt solution (HBSS) containing 10 mM HEPES and 15 mM glucose at a pH of 6.5 containing 200 μM BNPP. The receiver wells used HBSS buffer containing 10 mM HEPES and 15 mM glucose at a pH of 7.4 and supplemented with 1°% BSA. After an initial equilibration with transport buffer, TEER values were read to test membrane integrity. The experiment was started by the addition of buffers containing test compounds, 200 μl and 1000 μl in the apical and basolateral chamber, respectively. At 0- and 2-hour post dose, 10 μL was sampled from donor compartment and was immediately diluted in 190 μL of 20% methanol. At 1 and 2 hours post dose, 100 μl of solution was taken from the receiver compartments and was immediately diluted in 100 μl of 20% methanol. Removed buffer was replaced with fresh buffer and a correction was applied to all calculations for the removed material. Each compound was tested in 2 separate replicate wells for each condition. All samples were then extracted with 400 μl 100% acetonitrile with internal standard to precipitate protein. Cells were dosed on the apical or basolateral side to determine forward (A to B) and reverse (B to A) permeability. To test for non-specific binding and compound instability, the total amount of drug was quantitated at the end of the experiment and compared to the material present in the original dosing solution as a percent recovery. […] Samples were analyzed by LC-MS/MS.

[2] = test system: Respiratory syncytial virus recombinant with luciferase (RSV-Luc5) in Normal Human Bronchial Epithelial (NHBE) cells; assay: microbe, parasite or virus in culture; assay type: cell-based; details: 72 h, read-out: RSV NHBE EC50
[3] = CC50 MT4 cytotoxicity (Cell-Titer Glo); assay type: cell-based; details: human
Procedure: Cytotoxicity of the compounds was determined in uninfected cells using the cell viability reagent in a similar fashion as described before for other cell types (Cihlar et al., Antimicrob Agents Chemother. 2008, 52(2):655-65). HEp-2 (1.5×10^3 cells/well) and MT-4 (2×10^3 cells/well) cells were plated in 384-well plates and incubated with the appropriate medium containing 3-fold serially diluted compound ranging from 15 nM to 100,000 nM. Cells were cultured for 4-5 days at 37° C. Following the incubation, the cells were allowed to equilibrate to 25° C., and cell viability was determined by adding Cell-Titer Glo viability reagent. The mixture was incubated for 10 min, and the luminescence signal was quantified using an Envision plate reader. Untreated cell and cells treated at 2 μM puromycin (Sigma, St. Louis, MO) serve as 100% and 0% cell viability control, respectively. The percent of cell viability was calculated for each tested compound concentration relative to the 0% and 100% controls and the CCso value was determined by non-linear regression as a compound concentration reducing the cell viability by 50%.

[4] = GI S9 stability - no PMSF; assay type: in vitro ADME; parameters: GIS9-HUMAN-NoPMSF T1/2: unit: min; details: human intestinal S9, PMSF-free; for half-life at 2 µM: pH 7.4, read-out: GIS9-HUMAN-NoPMSF T1/2
Procedure: Duplicate aliquots of test compound or positive control substrate (GS-7340) were added to S9 stock diluted with 100 mM phosphate buffered saline, pH 7.4, to obtain a protein concentration of 1.0 mg/mL. The S9 metabolic reactions were initiated by the addition of the substrates to the S9 reaction mixture to a final concentration of 2 μM. At 0, 10, 20, 30, 60 and 120 min, […] aliquots of the reaction mixture were transferred to plates containing […] of IS/Q solution. After quenching, the plates were centrifuged at 3000 g for 30 minutes, and 150 μL aliquots of each supernatant were diluted with 150 μL water. Aliquots ([…]) of the diluted supernatant were analyzed on a Thermo Q-Exactive mass spectrometer as described below. GI S9 Stability—No phenylmethylsulfonyl fluoride (PMSF): Similar to the procedure described above, test compounds were incubated at 2 μM with 1 mg/mL PMSF-free Intestinal S9 fractions. Samples are removed at 6 time points over the course of a 120 min experiment and the parent compound disappreance and reference compound A formation is determined by mass spectrometry.
Example K: Liquid Chromatography/Mass Spectroscopy Methods for S9 and Plasma Stability
Quantification of test compounds, Reference Compound A (S9 stability assay nucleoside metabolite), and controls was performed by analyte/internal standard peak area ratio (PAR) values measured on a Thermo Q-Exactive mass spectrometer coupled to a Dionex UltiMate 3000 HPLC with a Leap Technologies HTC PAL autosampler. The column used for analysis of test compounds and Reference Compound A was a Waters Acquity BEH C18 ([…] particle size, 2.1′50 mm). The column used for control (GS-7340) was a Thermo Hypersil GOLD ([…] particle size, 2.1′50 mm). Mobile phase A consisted of 0.1% (v/v) formic acid in water. Mobile phase B consisted of 0.1% (v/v) formic acid in acetonitrile. Elution of analytes was achieved by a series of linear gradients of acetonitrile in water containing 0.1°(v/v) formic acid. The mass spectrometer was calibrated on a weekly basis and mass tolerance of 5 ppm was used.

[5] = test system: SARS Coronavirus 2 recombinant with NanoLuc (SARS-CoV2-NLuc) in A549-hACE2 cells; assay: organism not typed; assay type: cell-based; details: 48 h; read-out: SARS-CoV2 EC50
Plasma stability = assay type: in vitro ADME; parameters: unit not given here; details: 37° C., 2 μM substrate
Procedure: At 0.05, 0.5, 1, 2, 3 and 4 hr, […] aliquots of the reaction mixture were transferred to plates containing […] of IS/Q quenching solution. After quenching, the plates were centrifuged at 3000 g for 30 minutes, and 150 μL supernatant was diluted with 150 μL water. Aliquots ([…]) of the diluted supernatant were analyzed on a Thermo Q-Exactive mass spectrometer as described below.
Mobile phase A consisted of 0.1% (v/v) formic acid in water. Mobile phase B consisted of 0.1% (v/v) formic acid in acetonitrile. Elution of analytes was achieved by a series of linear gradients of acetonitrile in water containing 0.1°(v/v) formic acid. The mass spectrometer was calibrated on a weekly basis and mass tolerance of 5 ppm was used.

Compound	DM Caco2 A to B [1]	DM Caco2 B to A [1]	EC50 [2] [µM]	CC50 [3] [µM]	half-life at 2 µM [4] [s]	EC50 [5] [µM]	STA Human Plasma 37 (Plasma stability)	GIS9-HUMAN-NoPMSF T1/2 [4]
CC(=O)OC[C@H]1O[C@@](C#N)(c2ccc3c(N)ncnn23)[C@H](OC(C)=O)[C@@H]1OC(C)=O [3rd Reference Ester Compound]	5.07	8.91						
N#C[C@@]1(c2ccc3c(N)ncnn23)O[C@H](COC(=O)OC2CCC2)[C@@H](O)[C@H]1O [Compound 37, ((2R,3S,4R,5R)-5-(4-aminopyrrolo[2,1-f][1,2,4]triazin-7-yl)-5-cyano-3,4-dihydroxytetrahydrofuran-2-yl)methyl cyclobutyl carbonate]	0.5	7.54	4.75	> 50	35.3	3.15	53	
CC1(OC(=O)OC[C@H]2O[C@@](C#N)(c3ccc4c(N)ncnn34)[C@H](O)[C@@H]2O)CCCCCC1 [Compound 55, ((2R,3S,4R,5R)-5-(4-aminopyrrolo[2,1-f][1,2,4]triazin-7-yl)-5-cyano-3,4-dihydroxytetrahydrofuran-2-yl)methyl (1-methylcycloheptyl) carbonate]	0.38	1.89	1.34	> 50	35.8	2.9	75.665	
CC1(OC(=O)OC[C@H]2O[C@@](C#N)(c3ccc4c(N)ncnn34)[C@H](O)[C@@H]2O)CCCCCCC1 [Compound 57, ((2R,3S,4R,5R)-5-(4-aminopyrrolo[2,1-f][1,2,4]triazin-7-yl)-5-cyano-3,4-dihydroxytetrahydrofuran-2-yl)methyl (1-methylcyclooctyl) carbonate]			2.45	> 50		2.29	317.5	
CC(C)(OC(=O)OC[C@H]1O[C@@](C#N)(c2ccc3c(N)ncnn23)[C@H](O)[C@@H]1O)c1ccccn1 [Compound 98, [(2R,3S,4R,5R)-5-(4-aminopyrrolo[2,1-f][1,2,4]triazin-7-yl)-5-cyano-3,4-dihydroxy-tetrahydrofuran-2-yl]methyl [1-methyl-1-(2-pyridyl)ethyl] carbonate]	0.02	5.65	9				884.09	789
CC(C)(OC(=O)OC[C@H]1O[C@@](C#N)(c2ccc3c(N)ncnn23)[C@H](O)[C@@H]1O)c1cccnc1 [Compound 99, [(2R,3S,4R,5R)-5-(4-aminopyrrolo[2,1-f][1,2,4]triazin-7-yl)-5-cyano-3,4-dihydroxy-tetrahydrofuran-2-yl]methyl [1-methyl-1-(3-pyridyl)ethyl] carbonate]	0.11	2.47	3.15		5800		173.49	
COC(=O)OC[C@H]1O[C@@](C#N)(c2ccc3c(N)ncnn23)[C@@H]2OC(=O)O[C@@H]21 [Compound 127, ((3aR4R,6R,6aR)-6-(4-aminopyrrolo[2,1-f][1,2,4]triazin-7-yl)-6-cyano-2-oxotetrahydrofuro[3,4-d][1,3]dioxol-4-yl)methyl methyl carbonate]			5.06	> 50	57.4	13.7	12.071	
C=CCCC(=O)O[C@H]1[C@@H](OC(=O)CCC=C)[C@](C#N)(c2ccc3c(N)ncnn23)O[C@@H]1COC(=O)OC(C)C [Compound 134, (2R,3R,4R,5R)-2-(4-aminopyrrolo[2,1-f][1,2,4]triazin-7-yl)-2-cyano-5-(((isopropoxycarbonyl)oxy)methyl)tetrahydrofuran-3,4-diyl bis(pent-4-enoate)]			1.4	> 50		5.13	65.405	
N#C[C@@]1(c2ccc3c(N)ncnn23)O[C@H](CO)[C@@H](O)[C@H]1O [Reference Compound A, (2R,3R,4S,5R)-2-(4-aminopyrrolo[2,1-f][1,2,4]triazin-7-yl)-3,4-dihydroxy-5-(hydroxymethyl)tetrahydrofuran-2-carbonitrile, reference compound]	0.12	1.52						
